This passage reports IC50 results from patent US20170217889A1, “4-SUBSTITUTED PYRIDINE-2,6-DICARBOXYLIC ACID DERIVATIVES AND METHOD OF PREPARING SAME” (Okinawa Institute of Science and Technology School …, priority 2014, published 2017).

By IC50 is commonly meant the concentration needed to halve the response being measured.

This data set is described as follows: Cytotoxicity, K562 cell growth inhibition (Cell Counting Kit-8 / WST-8). Type of data set: cell-based. The note with it: human; K562 cells; 6-48 hrs incubation; WST-8 absorbance at 450 nm; read-out: Cytotoxic activity evaluated using K562 cells IC50. The procedure: K562 cells (American Type Culture Collection) were cultured in a culture medium containing 10% (v/v) fetal calf serum (FCS) (manufactures by Sigma) to logarithmic phase. The cells were seeded in 96-well microtiter plate at a density of 5000 cells/well in 100 μL cell culture medium and incubated at 37° C. and 5% CO2 in a humidified incubator overnight. The test compounds of various concentrations were added in a well at 10 fold concentration in 1/10 volume of medium without FCS. After 6-48 hrs incubation at 37° C. in the CO2 incubator, 10 uL solution of the viable cell counting reagent, Cell counting Kit-8 (5 mmol/L WST-8, 0.2 mmol/L 1-Methoxy PMS, 150 mmol/L NaCl) (manufactured by Dojindo) was added to each well, and reacted for 1 to 4 hours in the CO2 incubator. After the incubation, an absorbance of formazan, generated by reduction of WST-8, was determined at 450 nm using a microplate reader.
The assay readout is correlated with the viable cell numbers. Lower values correspond to high inhibition and greater values to low inhibition of the cell growth. To determine IC50 values (i.e. the concentration inhibiting the cell growth by 50%) of the compounds of formula I, several assays were made with a range of concentrations chosen empirically to give low, high and intermediate inhibition of the growth and determined using curve fitting software.
On the technique in general: Tetrazolium assays rely on reduction of a dye to a coloured formazan, in cell work by metabolically active cells.
With `CCOC(=O)c1cc(-c2ccc(Br)cc2)cc(C(=O)OCC)n1`, the IC50 amounted to 35 µM.
As for `CCOC(=O)c1cc(-c2ccc(Cl)cc2)cc(C(=O)OCC)n1`, the half-inhibitory concentration (IC50) stood at 50 µM.
With `CCOC(=O)c1cc(C2CCCCC2)cc(C(=O)OCC)n1`, the IC50 is 51 µM.
